Source: PMC5373622, “Screening for AMPA receptor auxiliary subunit specific modulators” (PLoS ONE, 2017)
Values joined by “and” are separate entries in the source; they are usually repeats but may differ in a detail not shown here. Equal entries are not always repeated. Where two headings read alike, the source gives them in different places.

Target: GluA2flip(R)-stargazin (A2R-stg TetON HEK293 cells) (Homo sapiens, UniProt P42262, Q607R)
Assay: Voltage-sensitive dye (VSD) assay (primary screen, counter-screen, CRC) on A2R-stg cells
Conditions: for BaselineReturn: max 250-255 s minus min 0-5 s; for CMPDmaxmin: max-min 8-100 s; for CMPDmaxmin / CMPDSlope: only compound present; for Glumaxmin: max-min normalized value 301-380 s; for Glumaxmin / GluSlope: compound and glutamate present; for GluSlope: slope 310-315 s; for CMPDSlope: slope 11-18 s
[1] = 6.25e-5 M, per well, plate 58169DST7

Sequence of GluA2flip(R)-stargazin (A2R-stg TetON HEK293 cells) (P42262 25-883 isoform P42262-2 Q607R limits assumed): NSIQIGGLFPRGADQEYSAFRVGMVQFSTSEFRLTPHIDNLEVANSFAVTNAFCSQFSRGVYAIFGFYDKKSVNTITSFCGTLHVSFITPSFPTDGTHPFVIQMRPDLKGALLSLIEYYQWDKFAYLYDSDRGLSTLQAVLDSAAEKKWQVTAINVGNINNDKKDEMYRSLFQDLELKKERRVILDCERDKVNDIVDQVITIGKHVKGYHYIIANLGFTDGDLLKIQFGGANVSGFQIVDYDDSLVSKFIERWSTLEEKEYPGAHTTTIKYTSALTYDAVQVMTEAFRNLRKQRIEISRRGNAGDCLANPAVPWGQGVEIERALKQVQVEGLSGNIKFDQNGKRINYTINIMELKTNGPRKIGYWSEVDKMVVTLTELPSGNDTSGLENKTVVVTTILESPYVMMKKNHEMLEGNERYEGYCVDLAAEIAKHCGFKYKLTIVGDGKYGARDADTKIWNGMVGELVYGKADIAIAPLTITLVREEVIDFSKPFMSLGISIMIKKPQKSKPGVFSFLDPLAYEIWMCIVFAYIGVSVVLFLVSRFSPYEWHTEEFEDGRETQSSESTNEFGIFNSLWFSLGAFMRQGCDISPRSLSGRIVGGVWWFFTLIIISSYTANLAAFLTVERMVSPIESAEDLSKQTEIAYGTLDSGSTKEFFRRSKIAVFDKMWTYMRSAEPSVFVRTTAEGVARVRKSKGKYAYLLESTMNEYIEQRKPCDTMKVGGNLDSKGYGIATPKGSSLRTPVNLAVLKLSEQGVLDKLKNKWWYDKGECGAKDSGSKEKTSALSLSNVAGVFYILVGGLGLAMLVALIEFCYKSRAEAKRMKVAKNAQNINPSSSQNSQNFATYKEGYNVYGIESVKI
Sequence of GluA2flip(R)-stargazin (A2R-stg TetON HEK293 cells) (Q9Y698 whole entry partner): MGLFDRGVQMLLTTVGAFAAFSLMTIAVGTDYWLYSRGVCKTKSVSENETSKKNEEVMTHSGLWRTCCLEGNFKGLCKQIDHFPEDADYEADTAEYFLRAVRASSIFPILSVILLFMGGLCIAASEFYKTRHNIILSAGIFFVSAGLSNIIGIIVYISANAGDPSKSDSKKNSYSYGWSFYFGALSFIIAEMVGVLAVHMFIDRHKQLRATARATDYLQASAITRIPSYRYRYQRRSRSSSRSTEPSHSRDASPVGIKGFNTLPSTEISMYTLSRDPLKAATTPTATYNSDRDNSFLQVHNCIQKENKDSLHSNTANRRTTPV

BaselineReturn (maximal normalized value 250-255 s minus minimal 0-5 s) [1]: 0.01812 and 0.0231 and 0.02286 | CMPDmaxmin (maximal - minimal normalized value, 8-100 s, only compound present) [1]: 0.02793 and 0.02317 and 0.02528 | pctMAXslope (GluSlope as percentage MAX) [1]: 40.7941% and 49.9185% and 35.6482% | pctMAXslopeCMPD (CMPDSlope as percentage MAX) [1]: 27.4558% and 28.8276% and 28.6616% | BaselineReturn (6.25e-5 M): 0.01973 and 0.018 and 0.01152 | CMPDmaxmin (6.25e-5 M): 0.02536 and 0.01826 and 0.01839 | Glumaxmin (6.25e-5 M): 0.2031 and 0.2196 and 0.1717 | GluSlope (6.25e-5 M): 6.2051e-6 and 9.036e-6 and 7.987e-6 | activity at 250 µM (HEK293, read-out: AVE %MAXCMPDslope, 0.00025 M, average of wells): 30.3% | activity at 500 µM (HEK293, read-out: AVE %MAXCMPDslope, 0.0005 M, average of wells): 34.5% | activity at 1000 µM (HEK293, read-out: AVE %MAXCMPDslope, 0.001 M, average of wells): 42.6% | activity at […] (HEK293, read-out: AVE %MAXCMPDslope, […], average of wells): 29.5% | activity at 250 µM (HEK293, read-out: AVE %MAXslope, 0.00025 M, average of wells): 53.6% | activity at 500 µM (HEK293, read-out: AVE %MAXslope, 0.0005 M, average of wells): 57.1% | activity at 1000 µM (HEK293, read-out: AVE %MAXslope, 0.001 M, average of wells): 54.1% | activity at […] (HEK293, read-out: AVE %MAXslope, […], average of wells): 47% | activity at 250 µM (HEK293, read-out: pctMAX, 0.00025 M, Glumaxmin as percentage MAX (vhl and glutamate controls)): 30.3% | activity at 500 µM (HEK293, read-out: pctMAX, 0.0005 M, Glumaxmin as percentage MAX (vhl and glutamate controls)): 42.2% | activity at 1000 µM (HEK293, read-out: pctMAX, 0.001 M, Glumaxmin as percentage MAX (vhl and glutamate controls)): 48.3% | activity at 250 µM (HEK293, read-out: pctMAXslope, 0.00025 M, GluSlope as percentage MAX): 53.6% | activity at 500 µM (HEK293, read-out: pctMAXslope, 0.0005 M, GluSlope as percentage MAX): 58.2% | activity at 1000 µM (HEK293, read-out: pctMAXslope, 0.001 M, GluSlope as percentage MAX): 54.2% | activity at […] (HEK293, read-out: pctMAXslope, […], GluSlope as percentage MAX): 49.2% | activity at 250 µM (HEK293, read-out: pctMAXslopeCMPD, 0.00025 M, CMPDSlope as percentage MAX): 31.5% | activity at 500 µM (HEK293, read-out: pctMAXslopeCMPD, 0.0005 M, CMPDSlope as percentage MAX): 33.5% | activity at 1000 µM (HEK293, read-out: pctMAXslopeCMPD, 0.001 M, CMPDSlope as percentage MAX): 43% | activity at […] (HEK293, read-out: pctMAXslopeCMPD, […], CMPDSlope as percentage MAX): 28.5% | concentrations giving a slight increase in fluorescence in the absence of glutamate (compound-only window): > 250 µM
SMILES: O=C(c1ccc2c(c1)OCCO2)N1CCCCC1 [CX-546, 1-(1,4-benzodioxan-6-ylcarbonyl)piperidine]
pctMAXslopeCMPD (CMPDSlope as percentage MAX) (3.125e-5 M, per well, plate 58169DST7): 26.044% and 27.2438% and 26.2272% and 24.5792% and 27.7844% and 28.3201% | BaselineReturn (0.00025 M): 0.05169 and 0.04966 and 0.04304 and 0.05412 and 0.05858 and 0.04633 | CMPDmaxmin (0.00025 M): 0.05366 and 0.04763 and 0.04669 and 0.05717 and 0.05497 and 0.04716 | Glumaxmin (0.00025 M): 0.3546 and 0.3256 and 0.3581 and 0.3601 and 0.3987 and 0.3619 | CMPDSlope (0.00025 M): 2.511e-6 and 1.582e-6 and 1.531e-6 and 1.914e-6 and 1.992e-6 and 1.6067e-6 | GluSlope (0.00025 M): 1.516e-5 and 1.442e-5 and 1.434e-5 and 1.326e-5 and 1.8177e-5 and 1.566e-5 | BaselineReturn (0.0005 M): 0.1016 and 0.09236 and 0.09814 and 0.1005 and 0.08945 and 0.09494 | CMPDmaxmin (0.0005 M): 0.09292 and 0.08599 and 0.08883 and 0.08871 and 0.09266 and 0.08518 | Glumaxmin (0.0005 M): 0.4227 and 0.415 and 0.4148 and 0.4609 and 0.4831 and 0.4327 | CMPDSlope (0.0005 M): 3.674e-6 and 4.188e-6 and 3.738e-6 and 3.852e-6 and 5.683e-6 and 4.257e-6 | GluSlope (0.0005 M): 1.777e-5 and 1.508e-5 and 1.548e-5 and 1.731e-5 and 1.8778e-5 and 1.858e-5 | BaselineReturn (0.001 M): 0.1819 and 0.178 and 0.2248 and 0.2011 and 0.1897 and 0.1856 | CMPDmaxmin (0.001 M): 0.1715 and 0.1673 and 0.213 and 0.1892 and 0.174 and 0.1789 | Glumaxmin (0.001 M): 0.4573 and 0.4826 and 0.4107 and 0.4115 and 0.4861 and 0.4796 | CMPDSlope (0.001 M): 9.085e-6 and 8.904e-6 and 9.403e-6 and 8.729e-6 and 8.585e-6 and 8.384e-6 | GluSlope (0.001 M): 1.548e-5 and 1.672e-5 (2×) and 1.1033e-5 and 1.693e-5 and 1.578e-5
